In patent publication EP4741383A1, “COMPOUND AND USE THEREOF AS ANTI-CANCER DRUG” (Tyligand Bioscience (Shanghai) Limited, priority 2023, dated 2025):

How the values were obtained:
Assay type in all cases: biochemical
SHP1 = biological target: T1, SHP1 (Homo sapiens, UniProt P29350); experiment: Tyrosine phosphatase selectivity (pNPP substrate), SHP1
T1 construct: made in house; host or cells: E. coli
Description: (§1) This experiment evaluated the selectivity of the disclosed compounds against tyrosine phosphatases, including SHP1, HePTP, Laforin, LMWPTP, LYP, PTP1B, PRL2, SSU72, VHR, FAP1, STEP, CDC14A, CD45, MEG2, and PP5, all expressed and purified from E. coli.
(§2) Phosphatase activity was measured using p-nitrophenyl phosphate (pNPP) (Fisher Scientific) as the substrate in 50 mM 3,3-dimethylglutaric acid buffer (pH 7.0, containing 1 mM EDTA), with ionic strength adjusted to 0.15 M with NaCl. […] After 10-60 minutes, the reaction was quenched by adding 20 µL of 5 N NaOH. Wells without enzyme were used as controls for correction. The amount of the product, p-nitrophenol, was determined by measuring the absorbance at 405 nm using a Spectra MAX340 microplate spectrophotometer (Molecular Devices), with a molar extinction coefficient of 18000 M^-1cm^-1.
(§3) Data were analyzed using GraphPad Prism software. Dose-response curves were obtained by fitting data using the nonlinear S-curve regression Dose-response-inhibition equation, and IC50 values were calculated.

HePTP = biological target: T2, HePTP (Homo sapiens, UniProt P35236); experiment: Tyrosine phosphatase selectivity (pNPP substrate), HePTP
T2 construct: made in house; host or cells: E. coli
T2 sequence (P35236 1-360): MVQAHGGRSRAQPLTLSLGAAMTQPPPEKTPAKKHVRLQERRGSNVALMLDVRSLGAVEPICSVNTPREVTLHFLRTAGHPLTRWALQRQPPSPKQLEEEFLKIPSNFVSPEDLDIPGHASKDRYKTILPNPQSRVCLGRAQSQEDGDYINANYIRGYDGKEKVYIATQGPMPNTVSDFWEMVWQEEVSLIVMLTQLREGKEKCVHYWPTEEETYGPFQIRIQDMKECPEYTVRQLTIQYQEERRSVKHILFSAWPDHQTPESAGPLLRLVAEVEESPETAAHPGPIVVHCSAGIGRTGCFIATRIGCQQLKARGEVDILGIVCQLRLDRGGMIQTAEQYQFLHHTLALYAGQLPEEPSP
Description: as §1, §2, §3

Laforin = biological target: T3, Laforin (Homo sapiens, UniProt O95278); experiment: Tyrosine phosphatase selectivity (pNPP substrate), Laforin
T3 construct: made in house; host or cells: E. coli
T3 sequence (O95278 1-331): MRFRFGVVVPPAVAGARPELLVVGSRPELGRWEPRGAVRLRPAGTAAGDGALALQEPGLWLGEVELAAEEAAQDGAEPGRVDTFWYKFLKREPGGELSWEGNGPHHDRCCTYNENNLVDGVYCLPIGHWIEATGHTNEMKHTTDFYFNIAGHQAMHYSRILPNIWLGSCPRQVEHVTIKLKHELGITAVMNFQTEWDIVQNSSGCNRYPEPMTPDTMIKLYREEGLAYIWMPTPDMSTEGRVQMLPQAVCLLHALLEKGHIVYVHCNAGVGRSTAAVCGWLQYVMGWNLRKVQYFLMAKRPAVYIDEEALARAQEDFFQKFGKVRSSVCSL
Description: as §1, §2, §3

PTP1B = biological target: T4, PTP1B (Homo sapiens, UniProt P18031); experiment: Tyrosine phosphatase selectivity (pNPP substrate), PTP1B
T4 construct: made in house; host or cells: E. coli
T4 sequence (P18031 1-435): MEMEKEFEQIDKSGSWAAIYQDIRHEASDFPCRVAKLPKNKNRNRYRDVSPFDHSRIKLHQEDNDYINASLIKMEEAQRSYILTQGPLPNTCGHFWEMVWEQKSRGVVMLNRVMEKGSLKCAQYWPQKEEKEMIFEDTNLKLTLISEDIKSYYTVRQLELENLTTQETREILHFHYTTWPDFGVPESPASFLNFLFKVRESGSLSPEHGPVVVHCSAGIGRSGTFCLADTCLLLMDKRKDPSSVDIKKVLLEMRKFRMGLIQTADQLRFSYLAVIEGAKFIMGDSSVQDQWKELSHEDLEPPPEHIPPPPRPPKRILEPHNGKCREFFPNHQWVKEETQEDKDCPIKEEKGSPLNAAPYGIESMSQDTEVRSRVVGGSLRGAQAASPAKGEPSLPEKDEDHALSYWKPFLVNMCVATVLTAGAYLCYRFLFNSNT
Description: as §1, §2, §3

PRL2 = biological target: T5, PRL2 (Homo sapiens, UniProt Q12974); experiment: Tyrosine phosphatase selectivity (pNPP substrate), PRL2
T5 construct: made in house; host or cells: E. coli
T5 sequence (Q12974 1-167): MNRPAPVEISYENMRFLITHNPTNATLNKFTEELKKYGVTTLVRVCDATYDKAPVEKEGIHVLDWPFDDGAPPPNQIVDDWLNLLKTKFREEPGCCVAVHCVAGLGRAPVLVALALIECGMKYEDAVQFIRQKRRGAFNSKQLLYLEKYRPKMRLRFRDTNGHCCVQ
Description: as §1, §2, §3

MEG2 = biological target: T6, MEG2 (Homo sapiens, UniProt P43378); experiment: Tyrosine phosphatase selectivity (pNPP substrate), MEG2
T6 construct: made in house; host or cells: E. coli
T6 sequence (P43378 1-593): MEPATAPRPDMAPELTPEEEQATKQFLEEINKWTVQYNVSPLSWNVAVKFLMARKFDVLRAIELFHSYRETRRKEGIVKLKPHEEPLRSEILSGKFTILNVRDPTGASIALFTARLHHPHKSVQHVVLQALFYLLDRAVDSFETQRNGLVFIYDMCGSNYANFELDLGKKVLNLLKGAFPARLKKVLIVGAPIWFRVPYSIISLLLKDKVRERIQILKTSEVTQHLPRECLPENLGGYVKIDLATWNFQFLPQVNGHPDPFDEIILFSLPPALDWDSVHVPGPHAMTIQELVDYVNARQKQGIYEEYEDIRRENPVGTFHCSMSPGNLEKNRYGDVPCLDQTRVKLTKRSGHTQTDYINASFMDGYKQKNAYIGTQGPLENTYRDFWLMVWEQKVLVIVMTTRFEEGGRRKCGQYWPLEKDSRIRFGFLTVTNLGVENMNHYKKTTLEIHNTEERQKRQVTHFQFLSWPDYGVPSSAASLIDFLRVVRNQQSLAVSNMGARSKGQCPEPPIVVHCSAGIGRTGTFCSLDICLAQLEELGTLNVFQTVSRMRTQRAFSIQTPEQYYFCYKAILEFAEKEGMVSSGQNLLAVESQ
Description: as §1, §2, §3

T1 sequence (P29350 whole entry): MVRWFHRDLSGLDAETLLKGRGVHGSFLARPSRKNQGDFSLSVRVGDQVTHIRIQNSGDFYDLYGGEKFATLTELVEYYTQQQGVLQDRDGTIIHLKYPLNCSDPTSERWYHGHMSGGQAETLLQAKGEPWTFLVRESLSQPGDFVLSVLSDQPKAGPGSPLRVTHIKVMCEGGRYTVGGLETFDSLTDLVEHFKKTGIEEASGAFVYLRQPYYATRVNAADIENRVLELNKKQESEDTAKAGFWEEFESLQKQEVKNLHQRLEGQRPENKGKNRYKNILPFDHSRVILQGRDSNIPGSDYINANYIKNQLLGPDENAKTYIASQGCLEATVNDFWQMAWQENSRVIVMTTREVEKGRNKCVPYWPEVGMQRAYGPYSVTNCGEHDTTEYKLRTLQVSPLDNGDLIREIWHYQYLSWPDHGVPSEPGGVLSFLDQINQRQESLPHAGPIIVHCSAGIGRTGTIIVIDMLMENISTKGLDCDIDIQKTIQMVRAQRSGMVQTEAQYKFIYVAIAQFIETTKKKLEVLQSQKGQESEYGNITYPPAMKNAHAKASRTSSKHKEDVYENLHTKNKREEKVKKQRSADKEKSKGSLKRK

IC50 (SHP1; SHP1, pNPP substrate): 0.6 µM
IC50PTP/IC50SHP2 SHP1 (SHP1; selectivity ratio SHP1 over SHP2): 22.2
IC50 (HePTP; HePTP, pNPP substrate): 5.7 µM
IC50PTP/IC50SHP2 HePTP (HePTP; selectivity ratio HePTP over SHP2): 211.1
IC50 (Laforin; Laforin, pNPP substrate): > 20 µM
IC50PTP/IC50SHP2 Laforin (Laforin; selectivity ratio Laforin over SHP2): 740.7
IC50 (PTP1B; PTP1B, pNPP substrate): 2.7 µM
IC50PTP/IC50SHP2 PTP1B (PTP1B; selectivity ratio PTP1B over SHP2): 100
IC50 (PRL2; PRL2, pNPP substrate): > 50 µM
IC50PTP/IC50SHP2 PRL2 (PRL2; selectivity ratio PRL2 over SHP2): 1851.9
IC50 (MEG2; MEG2, pNPP substrate): 15.1 µM
IC50PTP/IC50SHP2 MEG2 (MEG2; selectivity ratio MEG2 over SHP2): 559.3
Structure (SMILES): O=C(Nc1ccc(-c2ccsc2)cc1)C(=O)Nc1ccc(-c2cc3cc(F)c(-c4nnn[nH]4)nc3n2C2CCC2)cc1 [Example 132]
